How the values were obtained:
MDA-MB-453 = test: Ki67 proliferation index by immunohistochemistry; format: cell-based, human; settings: no persistent Stat3 activity
Description: (§1) FIGS. 5A and 5B. Evaluation for effects of PLATINUM-401 on cellular constitutive Stat3 activation and cell proliferation. Normal or malignant cells were treated with or without PLATINUM-401 and nuclear extracts were prepared for Stat3 DNA-binding activity assay with hSIE probe, or cells were processed for nuclear Ki67 immunohistochemistry. (FIG. 5A) EMSA analysis of Stat3 DNA-binding activity; (FIG. 5B) Graphical representations of quantified nuclear staining of Ki-67 proliferation index. Stat3:Stat3-DNA complexes in gels are labeled. The Ki-67 proliferation indexes were calculated as the percent positive tumor cells relative to the total number of cells. […]
(§2) Immunohistochemistry—The indirect peroxidase-antiperoxidase test was performed on cytospins prepared from cell lines (control and treated). […] The presence of Ki-67 nuclear staining was calculated as percent positive tumor cells in relation to the total number of cells.
(§3) The inventors further examined the biological effects of PLATINUM-401 and determined whether any changes might correlate with the inhibition of constitutively-active Stat3. […]
(§4) Changes in cell proliferation induced by treatment with PLATINUM-401 were assayed in terms of Ki67 proliferation index by immunohistochemistry. The presence of Ki-67 nuclear staining was calculated as the percent positive tumor cells in relation to the total number of cells.

[1] = test system: normal NIH 3T3 fibroblasts; test: Ki67 proliferation index by immunohistochemistry; format: cell-based, mouse; settings: no persistent Stat3 activity
Description: as §1, §2, §3, §4

Stat5 = test: In vitro Stat5 DNA-binding activity assay, EMSA with MGFe probe; design: species or system mouse; settings: pre-incubated 30 min before MGFe probe
Description: FIGS. 1A-1E. Inhibition of in vitro Stat3 DNA-binding activity by a platinum complex. Nuclear extracts or cell lysates containing activated Stat1, Stat3 and Stat5, or E2F1 prepared from NIH3T3/hEGFR that are stimulated with EGF or Sf-9 insect cells that are infected with baculovirus expressing Stat1, Stat3, Stat5, or E2F1, respectively, were treated with or without the indicated concentrations of platinum complex, PLATINUM-401 or Cisplatin, for 30 min at room temperature prior to incubation with radiolabeled oligonucleotide probes, and subjected to EMSA analysis. (FIG. 1A) (i) Stat1 and Stat3 binding activities to hSIE probe, (ii) Stat1 and Stat5 binding activities to MGFe probe, and (iii) plot of % oligonucleotide probe-STAT:STAT complexes versus concentration of PLATINUM-401. […] Positions of STAT: STAT-DNA complexes in gel are labeled. In (A) to (C), the control lanes represent DMSO (vehicle)-treatment.
Nuclear extract preparation and gel shift assays—Nuclear extract preparation from NIH3T3 stimulated by rhIL-6, NIH3T3/hEGFR stimulated by rhEGF, v-Src-transformed fibroblasts (NIH3T3/v-Src) or tumor cell lines and electrophoretic mobility shift assay were carried out as previously described (Turkson et al., 1998; Garcia et al., 1997; Yu et al., 1995). […]

Cyclin D1 = Cyclin D1 detection, in situ and Western blot; format: cell-based, mouse; settings: NIH3T3/v-Src, 48 h
Description: FIGS. 8A and 8B. Inhibition of Cyclin D1 and Bcl-xL induction by PLATINUM-401. Viral Src-transformed fibroblasts (NIH3T3/v-Src) and human breast cancer cell line MDA-MB-435 that contain constitutively-activated Stat3 were treated with or without platinum complex for 48 h. Cells were processed for immunohistochemistry, or cell lysates were prepared from cells and subjected to 5% PAGE and Western blot analysis, as indicated in “Materials and Methods.” (FIG. 8A) Detection of Cyclin D1; (FIG. 8B) Detection of Bcl-xL. Positions of Cyclin D1 and Bcl-xL proteins are shown. Beta-actin levels are shown for normalizing for equal total protein. Data are representative of 3 independent determinations.
Western blot—Whole-cell lysates were prepared in boiling sodium dodecyl sulfate (SDS) sample-loading buffer to extract total proteins from the cytoplasm and nucleus. Equivalent amounts of total cellular protein were electrophoresed on an SDS-10% polyacrylamide gel and transferred onto nitrocellulose membranes. Probing of nitrocellulose membranes with primary antibodies and detection of horseradish peroxidase-conjugated secondary antibodies by enhanced chemiluminescence (Amersham, Piscataway, N.J.) were performed as previously described (Garcia et al., 2001; Turkson et al., 2004b; Zhang et al., 2000). […]

CC(O)CN1CCN(CC(C)O)CC1 (stereo not shown) [PLATINUM-401]
proliferation (Ki67 index) (MDA-MB-453): lack of effect
proliferation (Ki67 index) [1]: lack of effect
effect on DNA-binding activity of Stat5:Stat5 dimer (Stat5): does not significantly affect
Cyclin D1 level (Cyclin D1): significantly diminished

— patent publication US11571418B2, “Platinum compounds that inhibit constitutive STAT3 signaling and induce cell cycle arrest and apoptosis of malignant cells” (H. LEE MOFFITT CANCER CENTER AND RESEARCH INSTITUTE, INC., priority 2011, dated 2023)
